Test results as given in patent US20250250303A1 (THE TRUSTEES OF COLUMBIA UNIVERSITY IN THE CITY OF NEW YORK, priority 2022, published 2025).
Bridge positions count the residues as written; N and C are the ends. Ends that are not written are not given here.

Columns and labels:
Insulin tolerance test = format: in vivo, mice; details: intraperitoneal; for blood glucose levels in ITT: FIGS. 10A, 8F, 8G; for blood glucose in insulin tolerance assays: FIGS. 12B, 12C
Experimental: Insulin tolerance tests were performed as described previously with some modification. Briefly, 2-3 months old male mice were fasted for 2 hr. and their blood glucose levels (T=0) were measured with tail bleeding using a glucometer (AlphaTRAK). After then, mice were injected intraperitoneally with Humulin (6 nmol/kg body weight), S597 (9 nmol/kg), S597-S20D (9 nmol/kg), S597-W6A (9 nmol/kg), S597-F27A (9 nmol/kg), or S597-N20 (27 nmol/kg), and their blood glucose levels were measured at the indicated time points after injection.

[1] = Chronic treatment by osmotic minipump; format: in vivo, mice
Description: 2-month-old male mice were implanted with osmotic minipump releasing Humulin (0.2 U/day), S597 (0.3 U/day), or S597-S20D (0.3 U/day). […] Hepes, N=7; Humulin, N=8; S597, N=7; S597-S20D, N=4. […] Hepes, N=7; Humulin, N=8; S597, N=9; S597-S20D, N=4. Two-way ANOVA followed by Tukey's multiple comparisons test. […] Mean±SEM. Hepes, N=8; Humulin, N=7; S597, N=9; S597-S20D, N=5. […] Hepes, N=4; Humulin and S597 analogs, N=5. two-tailed Student's t-test. All graphs show Mean±SEM.
To examine the long-term effects of S597 in vivo, C57BL/6J WT mice were implanted with osmotic minipumps releasing either HEPES, Humulin, or mimetics. […] Consistent with previous work, chronic treatment of Humulin increased body weight (FIGS. 11E, 11F).

IR wild-type (WT) = target: T1, IR wild-type (WT) (Homo sapiens, UniProt P06213); test: IR activation (auto-phosphorylation) assay in 293 FT cells expressing IR WT; format: cell-based; details: 293 FT cells expressing IR WT; 10 nM for 10 min
T1 construct: expressed in transfected cells; host or cells: 293 FT cells
T1 sequence (P06213 28-1370 isoform P06213-2 limits assumed): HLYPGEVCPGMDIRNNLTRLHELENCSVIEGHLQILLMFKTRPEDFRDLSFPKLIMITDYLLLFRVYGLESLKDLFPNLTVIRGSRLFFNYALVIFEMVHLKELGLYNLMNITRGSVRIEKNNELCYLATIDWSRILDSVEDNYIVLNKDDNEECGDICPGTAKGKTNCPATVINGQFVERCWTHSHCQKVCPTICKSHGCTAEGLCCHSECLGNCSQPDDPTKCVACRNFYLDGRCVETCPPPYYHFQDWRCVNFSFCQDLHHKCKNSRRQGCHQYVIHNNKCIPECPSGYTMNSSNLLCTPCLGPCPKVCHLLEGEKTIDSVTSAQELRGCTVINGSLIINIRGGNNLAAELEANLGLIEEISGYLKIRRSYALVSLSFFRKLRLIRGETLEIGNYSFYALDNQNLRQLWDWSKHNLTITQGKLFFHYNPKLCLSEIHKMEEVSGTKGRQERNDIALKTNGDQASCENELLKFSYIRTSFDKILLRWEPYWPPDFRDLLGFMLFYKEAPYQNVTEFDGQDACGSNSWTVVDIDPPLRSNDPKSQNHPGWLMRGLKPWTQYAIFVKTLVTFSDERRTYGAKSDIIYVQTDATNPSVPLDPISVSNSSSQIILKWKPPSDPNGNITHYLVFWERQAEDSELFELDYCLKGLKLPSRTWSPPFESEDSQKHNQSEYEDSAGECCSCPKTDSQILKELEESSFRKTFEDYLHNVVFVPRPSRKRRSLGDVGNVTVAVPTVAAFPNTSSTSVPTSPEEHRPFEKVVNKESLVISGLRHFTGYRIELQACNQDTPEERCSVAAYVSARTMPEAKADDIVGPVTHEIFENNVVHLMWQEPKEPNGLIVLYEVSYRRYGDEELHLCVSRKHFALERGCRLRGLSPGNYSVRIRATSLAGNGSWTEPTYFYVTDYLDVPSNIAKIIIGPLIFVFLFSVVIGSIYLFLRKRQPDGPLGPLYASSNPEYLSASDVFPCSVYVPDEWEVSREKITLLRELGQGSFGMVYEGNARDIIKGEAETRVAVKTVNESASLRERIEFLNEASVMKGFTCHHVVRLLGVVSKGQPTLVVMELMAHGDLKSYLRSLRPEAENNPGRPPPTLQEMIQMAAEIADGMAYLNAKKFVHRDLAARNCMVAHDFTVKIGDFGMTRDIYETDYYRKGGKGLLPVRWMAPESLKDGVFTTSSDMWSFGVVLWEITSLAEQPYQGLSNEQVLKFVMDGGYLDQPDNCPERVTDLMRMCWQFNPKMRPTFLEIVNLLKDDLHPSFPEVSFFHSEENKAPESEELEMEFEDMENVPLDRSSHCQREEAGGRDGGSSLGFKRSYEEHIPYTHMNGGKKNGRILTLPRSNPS
T1 sequence (P06213 763-1382 partner limits assumed): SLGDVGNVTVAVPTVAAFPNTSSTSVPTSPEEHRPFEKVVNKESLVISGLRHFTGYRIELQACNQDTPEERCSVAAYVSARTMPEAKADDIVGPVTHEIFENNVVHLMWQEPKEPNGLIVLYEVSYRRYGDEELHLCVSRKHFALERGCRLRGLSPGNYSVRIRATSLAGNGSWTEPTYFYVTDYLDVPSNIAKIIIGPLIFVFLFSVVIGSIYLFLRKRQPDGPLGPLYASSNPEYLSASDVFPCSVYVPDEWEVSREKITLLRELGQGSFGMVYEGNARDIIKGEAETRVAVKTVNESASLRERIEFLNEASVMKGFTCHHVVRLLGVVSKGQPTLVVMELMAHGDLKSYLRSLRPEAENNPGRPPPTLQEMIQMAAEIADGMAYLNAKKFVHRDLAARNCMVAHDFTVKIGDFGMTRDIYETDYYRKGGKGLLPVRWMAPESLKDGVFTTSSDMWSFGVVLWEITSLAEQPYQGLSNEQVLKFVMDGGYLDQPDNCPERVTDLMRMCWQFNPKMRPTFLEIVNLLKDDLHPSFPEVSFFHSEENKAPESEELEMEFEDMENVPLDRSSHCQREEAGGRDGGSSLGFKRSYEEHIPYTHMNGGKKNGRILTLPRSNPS
Experimental: The insulin receptor signaling assay was performed as described earlier with some modifications. For the activation assay, the short isoform of human IR in pCS2-MYC was used as described previously. Plasmid transfections into 293 FT cells were performed with Lipofectamin™ 2000 (Invitrogen).
(§1) The cells were incubated with the lysis buffer B [50 mM Hepes pH 7.4, 150 mM NaCl, 10% Glycerol, 1% Triton X-100, 1 mM EDTA, 100 mM sodium fluoride, 2 mM sodium orthovanadate, 20 mM sodium pyrophosphate, 0.5 mM dithiothreitol (DTT), 2 mM phenylmethylsulfonyl fluoride (PMSF)] supplemented with complete Protease Inhibitor Cocktail (Roche), PhosSTOP (Sigma), and 25 U/ml turbo nuclease (Accelagen) on ice for 1 hr. After centrifuge at 20,817 g at 4° C. for 10 min, the concentrations of cell lysate were measured using Micro BCA Protein Assay Kit (Thermo Scientific). About 50-60 μg total proteins were analyzed by SDS-PAGE and quantitative Western blotting. The following antibodies were purchased from commercial sources: Anti-IR-pY1150/1151 (WB, 1:1000; 19H6; labeled as pY IR, Cat. #3024), anti-AKT (WB, 1:1000; 40D4, Cat. #2920), anti-pS473 AKT (WB, 1:1000; D9E, Cat. #4060), anti-ERK1/2 (WB, 1:1000; L34F12, Cat. #4696), anti-pERK1/2 (WB, […]; 197G2, Cat. #4377), anti-IRS1-pS616 (WB, 1:1000; C15H5, Cell Signaling, Cat. #3203); anti-IRS1 (WB, 1:1000; A301-158A, Bethyl Laboratory); anti-IR (WB, 1:500, CT-3, Santa Cruz; labeled as IR for primary hepatocytes and MEFs, Cat. #sc-57342); anti-IR (WB, 1:1000; EPR23566-103; labeled as IR for FIG. 31, ab278100, Abcam); anti-Myc (WB, 1:2000; 9E10, Cat. #11667149001, Roche; labeled as IR for 293 FT cells). For quantitative western blots, anti-rabbit immunoglobulin G (IgG) (H+L) (WB, 1:5000; Dylight 800 conjugates, Cat. #5151) and anti-mouse IgG (H+L) (WB, 1:5000; Dylight 680 conjugates, Cat. #5470) (Cell Signaling) were used as secondary antibodies. The membranes were scanned with the Odyssey Infrared Imaging System (Li—COR, Lincoln, NE).

IR signaling [2] = test: IR signaling in primary mouse hepatocytes; format: cell-based
Experimental: Primary hepatocytes were isolated from 2-month-old male mice with a standard two-step collagenase perfusion procedure as described earlier with some modifications. […] After 1-2 sec upon appearance of white spots in the liver, the portal vein was cut with scissors to wash out blood, and then the liver was perfused with 30 ml of Liver Digest Medium (Thermo Scientific, Cat. #17703034). Dissected liver was gently washed with low glucose DMEM and transferred to sterile culture dish containing 15 ml Liver Digest Medium. The isolated liver cells were filtered through the 70 μm cell strainer into a 50 ml tube. After centrifuge at 50 g for 5 min at 4° C., cells were washed with cold low glucose DMEM three times. […] After 2 hr., the medium was changed to serum free low-glucose DMEM.
as §1

C2C12 cells = test: MTT assay in C2C12 cells; format: cell-based
Experimental: To examine the function of […] on cell viability and growth, an MTT assay was performed in C2C12 cells.

SREBP1 = test: Immunofluorescence assay for SREBP1 translocation in primary hepatocytes; format: cell-based, mouse; details: 100 nM for 30 min
Experimental: Primary hepatocytes were as described in the primary hepatocyte isolation section. […] Cells were fixed with 4% paraformaldehyde for 10 min. The fixed cells were incubated with PBS for 30 min and 3% BSA in PBS with 0.1% Triton X-100 (0.1% PBST) for 1 hr., and then treated with anti-SREBP1 antibodies (20B12, Millipore, Cat. #MABS1987, 1:200) in 3% BSA in 0.1% PBST at 4° C. overnight. After being washed, cells were incubated with secondary antibodies (Alexa Fluor 488 goat anti-rabbit, Invitrogen, Cat. #A11008, 1:200) for 1 hr. Cells were washed and mounted on microscope slides in ProLong Gold Antifade reagent with DAPI (Invitrogen). Images were acquired as a series of 0.2 μm stacks with a Leica Thunder Imager (Leica Microsystems Inc.). Raw images were deconvolved using LAS X Software (Leica Microsystems Inc.). The nuclear edges and the nuclear SREBP1 signal were defined with Image J. Identical exposure times and magnifications were used for all comparative analyses.

IR signaling [3] = test: Insulin signaling in vivo (liver, skeletal muscle, WAT lysates, western blot); design: species or system mice; details: WAT; compared to vehicle treated conditions
Experimental: 2-3 months old male mice were fasted overnight. […] Livers were removed at 3 min after injection. White adipose tissue and skeletal muscles were removed at 5 min and 7 min after injection, respectively. Tissues were mixed with the lysis buffer B supplemented with complete Protease Inhibitor Cocktail (Roche), PhosSTOP (Sigma), and 25 U/ml turbo nuclease (Accelagen), homogenized with FisherbrandTM Bead Mill homogenizer, and then incubated on ice for 1 hr. After centrifuge at 20,817 g at 4° C. for 30 min, the concentrations of cell lysate were measured using Micro BCA Protein Assay Kit (Thermo Scientific). The lysates were then analyzed by quantitative western blotting.

[4] = target: T2, full-length mouse insulin receptor, short isoform, D1122N Y962F (mouse, UniProt P15208 28-1372); test: cryo-EM of full-length IR with S597, 5.4 Å
T2 construct: mature; Residue numbers are as printed; also called MmIR; IR
T2 sequence (P15208 28-1372 Y989F/D1149N limits assumed): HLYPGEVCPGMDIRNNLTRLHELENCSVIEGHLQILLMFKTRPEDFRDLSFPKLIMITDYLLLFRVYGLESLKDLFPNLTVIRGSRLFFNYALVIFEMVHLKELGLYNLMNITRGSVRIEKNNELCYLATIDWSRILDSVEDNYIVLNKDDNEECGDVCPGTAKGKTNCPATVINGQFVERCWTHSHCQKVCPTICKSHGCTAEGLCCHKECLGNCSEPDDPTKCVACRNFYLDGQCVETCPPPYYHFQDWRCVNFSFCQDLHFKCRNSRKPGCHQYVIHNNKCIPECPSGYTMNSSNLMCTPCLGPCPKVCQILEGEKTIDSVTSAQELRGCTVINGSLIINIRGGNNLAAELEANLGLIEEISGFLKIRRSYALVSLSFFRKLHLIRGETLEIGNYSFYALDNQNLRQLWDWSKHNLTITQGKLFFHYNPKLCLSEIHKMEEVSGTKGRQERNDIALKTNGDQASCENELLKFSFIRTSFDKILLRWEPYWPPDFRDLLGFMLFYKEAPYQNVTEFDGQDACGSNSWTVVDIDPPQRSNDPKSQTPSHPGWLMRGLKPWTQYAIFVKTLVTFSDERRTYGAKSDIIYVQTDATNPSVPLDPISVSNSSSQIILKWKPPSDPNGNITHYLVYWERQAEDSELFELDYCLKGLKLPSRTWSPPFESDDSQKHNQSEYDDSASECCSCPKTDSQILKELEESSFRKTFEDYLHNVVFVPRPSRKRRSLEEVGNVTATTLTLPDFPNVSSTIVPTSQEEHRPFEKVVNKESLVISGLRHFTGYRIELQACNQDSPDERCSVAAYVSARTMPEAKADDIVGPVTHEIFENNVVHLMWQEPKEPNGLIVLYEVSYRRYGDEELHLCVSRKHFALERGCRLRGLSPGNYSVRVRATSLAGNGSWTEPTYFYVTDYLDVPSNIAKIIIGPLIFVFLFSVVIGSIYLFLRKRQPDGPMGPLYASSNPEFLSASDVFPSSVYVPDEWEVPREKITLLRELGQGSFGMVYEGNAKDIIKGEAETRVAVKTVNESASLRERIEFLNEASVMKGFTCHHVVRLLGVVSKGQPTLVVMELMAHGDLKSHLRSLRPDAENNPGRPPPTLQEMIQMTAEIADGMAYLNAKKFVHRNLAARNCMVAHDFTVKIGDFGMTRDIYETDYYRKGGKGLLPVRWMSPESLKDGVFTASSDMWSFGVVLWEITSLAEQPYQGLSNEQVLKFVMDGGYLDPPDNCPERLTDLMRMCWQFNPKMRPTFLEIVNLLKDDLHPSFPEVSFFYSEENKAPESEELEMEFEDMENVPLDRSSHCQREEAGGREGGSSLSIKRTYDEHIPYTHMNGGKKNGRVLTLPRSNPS
Experimental: (§2) The cryo-EM grid was prepared by applying 3 μl of the protein samples (6 mg/ml) to glow-discharged Quantifoil R1.2/1.3 300-mesh gold holey carbon grids (Quantifoil, Micro Tools GmbH, Germany). Grids were blotted for 4.0 seconds under 100% humidity at 4° C. before being plunged into the liquid ethane using a Mark IV Vitrobot (FEI). Micrographs were acquired on a Titan Krios microscope (FEI) operated at 300 kV with a K3 direct electron detector (Gatan), using a slit width of 20 eV on a GIF-Quantum energy filter. SerialEM 3.8 was used for the data collection. […] The defocus range was set from 1.6 μm to 2.6 μm. Each micrograph was dose-fractionated to 30 frames with a total dose of about 60 e⁻/Å².

[5] = target: T2, full-length mouse insulin receptor, …; test: cryo-EM of full-length IR with S597-N20
Experimental: as §2

Humulin: Humulin (human insulin), Eli Lilly
blood glucose levels in ITT (Insulin tolerance test): lowered | body weight gain [1]: increased | C-peptide (insulin secretion) ([1]; serum, 4 h fasted mice): decreased

S597-F27A: S597-component-1 mutant, interrupts the IR L1/S597-component-1 interaction (Ac-SLEEEWAQIECEVYGRGCPSESFYDWAERQL; disulfide 11-18 (inferred))
blood glucose levels in ITT (Insulin tolerance test): did not reduce | blood glucose in insulin tolerance assays (Insulin tolerance test): did not reduce glucose levels, but rather elevated them | IR activation (auto-phosphorylation of IR, pY IR) (IR wild-type (WT)): greatly reduced potency

S597-N20: N-terminal 20 residues of S597 comprising only component-2 and the linker (Ac-SLEEEWAQIECEVYGRGCPS; disulfide 11-18 (inferred))
pAKT (IR signaling [2]): did not induce phosphorylation | pERK (IR signaling [2]): did not induce phosphorylation | pY IR (IR signaling [2]): did not induce phosphorylation | blood glucose levels in ITT (Insulin tolerance test): did not reduce | blood glucose in insulin tolerance assays (Insulin tolerance test): did not reduce glucose levels, but rather elevated them | IR activation (auto-phosphorylation of IR, pY IR) (IR wild-type (WT)): greatly reduced potency

S597-W6A: S597-component-2 mutant, disrupts the IR FnIII-1/S597-component-2 interaction (Ac-SLEEEAAQIECEVYGRGCPSESFYDWFERQL; disulfide 11-18 (inferred))
blood glucose levels in ITT (Insulin tolerance test): did not reduce | blood glucose in insulin tolerance assays (Insulin tolerance test): did not reduce glucose levels, but rather elevated them | IR activation (auto-phosphorylation of IR, pY IR) (IR wild-type (WT)): greatly reduced potency

insulin
cell viability and growth (C2C12 cells): significantly increased | pAKT (IR signaling [2]): increased | pERK (IR signaling [2]): increased | pY IR (IR signaling [2]): increased | nuclear translocation of SREBP1 (SREBP1): stimulated to the same level | pAKT level (IR signaling [3]): significantly increased | pERK level (IR signaling [3]): neither insulin nor S597 had a statistically significant effect

insulin-like growth factor 1 [IGF1]
cell viability and growth (C2C12 cells): significantly increased

B1: S597 (peptide)
peptide: Ac-SLEEEWAQIECEVYGRGCPSESFYDWFERQL
modifications: disulfide 11-18 (inferred)
notes: Component-2 (N-terminal helix), linker, component-1 (C-terminal helix); also called full-length S597
stoichiometry (S597: IR dimer) [4]: 2 S597 per IR dimer

B2: S597-N20 (peptide)
peptide: Ac-SLEEEWAQIECEVYGRGCPS
modifications: disulfide 11-18 (inferred)
notes: also called S597-component-2; S597-component-2 alone
binding result [5]: binds
